Experiments:
PC3 = test: Colony formation assay; assay type: cell-based, human; details: PC3, 48 h treatment then 14 days, nanomolar concentrations
Procedure: Next, we investigated the effect of NB on the ability of cancer cells to form colonies from single cells using a colony formation assay and a preplating mode. […] However, this speculation awaits further confirmation in vivo.
Figure 3 Colony formation assay. The human cancer cells were seeded in 6-well plates and treated for 48 h with the indicated concentrations of NB. Then, the media was exchanged, and the plates were incubated for 14 days, which was followed by fixation, staining, and counting. Number of replicates n = 3. Statistical significance: * p < 0.05 (ANOVA).

[1] = system: panel of 14 human cancer cell lines and one prostate cancer cell line DU145; parameters: method as in PMID 26039736; details: panel of 14 human cancer cell lines and DU145, no significant anticancer activity; cited from earlier work
[2] = system: caspase-3 in PC3-DR cells; test: Western blotting, caspase-3 cleavage; assay type: cell-based, human; details: 48 h
Procedure: Number of replicates n = 3. […] Viability was measured using an MTT assay. Number of replicates n = 3.
It is important to note that a reduction in p-gp activity could be conditioned by p-gp degradation or cell death-related processes. Consequently, using a Western blotting analysis, we measured p-gp expressional levels in the treated PC3-DR cells. […] Thus, the observed effect on p-gp activity seems to be exclusively related to the interaction of NB with p-gp rather than result from any cell death-related events.
The Western blot assay was executed as previously described: 1 × 10^6 cells were seeded in Petri dishes (ø 6 cm, 5 mL/dish) and incubated overnight. On the next day, the cells were treated with the compounds in fresh culture media (5 mL/dish) for the indicated time. Next, cells were harvested with a cell scraper and lysed in lysis buffer including protease and phosphatase inhibitors cocktail (Roche, Mannheim, Germany). Cell debris were removed from the protein lysates via centrifugation. Afterwards, the cell-free protein mixtures were separated in gradient ready-made Mini-PROTEAN® TGX Stain-Free^TM gels (Bio-Rad, Hercules, CA, USA) using SDS-PAGE (sodium dodecylsulfate polyacrylamide gel electrophoresis). Then, the proteins were blotted onto ø 0.2 µm pore PVDF membrane. […] The signals were detected using the ECL chemiluminescence system (Thermo Scientific, Rockford, IL, USA).

PC-3 = system: PC-3; parameters: method as in PMID 27355960; details: cited from earlier work
22Rv1 cells = test: Drug combination study NB with MAPK inhibitors, MTT assay, SynergyFinder 2.0; assay type: cell-based; details: Homo sapiens, 22Rv1, 24 h, 24 h; for inhibition at 0.8 µM: 22Rv1, NB alone 0.8 μM; for inhibition at 3.1 µM: 22Rv1, NB alone 3.1 μM; for inhibition at 12.5 µM: 22Rv1, NB alone 12.5 μM; for inhibition at 50 µM: 22Rv1, NB alone 50 μM
Excerpt: Whether activation of MAPKs contribute to cell death or survival depends not only on the cellular context, but also on the nature of the activating stimuli. Thus, to reveal the function of JNK1/2 and p38 in the anticancer effect of NB, we co-treated 22Rv1 cells with NB and specific inhibitors of the above-mentioned MAPKs. […] As MEK1/2 kinase directly and exclusively activates ERK1/2, PD98039 inhibitor is often used as an ERK1/2 inhibitor [38]. Thus, an inactivation of MEK1/2 leads solely to an inhibition of ERK1/2 [38]. Since the inhibitors themselves exert cytotoxic effects in cancer cells, we used a Chou–Talalay method to distinguish between synergism, additive effects, or antagonistic effects of the particular MAPK inhibitor on the compound bioactivity. For this, using an MTT assay, we determined a cytotoxic effect on various concentrations of NB, MAPK inhibitors, and their combinations in 22Rv1 cells. The viability data were further analyzed using the SynergyFinder v. 2.0 software (Network Pharmacology for Precision Medicine in the Research Program of System Oncology, Faculty of Medicine at University of Helsinki, Helsinki, Finland) and a Zero interaction potency (ZIP) reference model (Figure 7).
The experiments were carried out as previously reported. […] 22Rv1 cells (6 × 10^3 cells/well in 96-well plates) were simultaneously treated with NB and docetaxel; or pretreated with MAPK inhibitors for 1 h following treatment with NB in the total media volume of 100 µL/well. Following 24 h of incubation, the viability of the cells treated with individual drugs as well as their combinations was determined using MTT assay. […] Red areas (positive δ-values) and green areas (negative δ-values) indicate synergism and antagonism, respectively.

## COc1ccc(C2SSC34CC5(O)C(Cl)C=CC(O)C5ON3C(=O)C2N(C)C4=O)c(O)c1OC (stereo not shown) [NB, N-methylpretrichodermamide B]
PC3
  colony-formation ability: inhibit the colony-formation ability
[1]
  IC50: > 10 µM
[2]
  concentration at which cleavage of caspase-3 was detected: 6 µM
PC-3
  IC50: 5.11 µM
22Rv1 cells; matrix with PD98059 (0 μM)
  inhibition at 0.8 µM: 28.5%
  inhibition at 3.1 µM: 35.2%
  inhibition at 12.5 µM: 43.4%
  inhibition at 50 µM: 51.9%
22Rv1 cells; matrix with SB203580 (0 μM)
  inhibition at 0.8 µM: 29.1%
  inhibition at 3.1 µM: 33.3%
  inhibition at 12.5 µM: 48.2%
  inhibition at 50 µM: 54.9%
22Rv1 cells; matrix with SP600125 (0 μM)
  inhibition at 0.8 µM: 17.3%
  inhibition at 3.1 µM: 25.2%
  inhibition at 12.5 µM: 40.5%
  inhibition at 50 µM: 41%

Source: PMC9605374 (Marine Drugs, 2022)
